Reference: patent US9498446B2, “Pharmaceutical compositions resistant to abuse” (Egalet Ltd., priority 2009, dated 2016)
“And” between values parts separate entries of the source, which are not always exact repeats. Identical values can stand only once.

Test: Dissolution test of naltrexone from intact and ground tablets
Assay type: physicochemical
Protocol: Polylactid acid was injection moulded in a Haake Minijet (Haake MiniJet II, Thermo Electron, Karlsruhe, Germany) as described in Methods. An inner core filled with approximately 25 mg Naltrexone hydrochloride was prepared and closed in both ends with the above mentioned shell composition. The inner core has a size of 8 mm×4.26 mm×2.49 mm. The inner core was placed in the cavity of a larger shell 2 (H: 20 mm; L: 6 mm; B: 6 mm) with the same shell composition and the large shell was filled with placebo matrix composition as described in Methods.
Dissolution tests of naltrexone were performed in accordance to USP 30, NF 25, (711). Apparatus 2 (paddle method). The dissolution medium consisted of phosphate buffer solution pH 6.8. The volume of the dissolution medium was 500 ml and the rotation speed of the paddles was 50 rpm throughout the dissolution rum. The temperature was 37° C. Samples were withdrawn at suitable time intervals and analysed for content of active drug substance by means of HPLC UV detection. Intact tablets n=2 and tablets milled in a Coffee Grinder, Krups GVX242 (n=2) were analyse in dissolution.
The amount of naltrexone was determined by a modified USP method. The technique was reverse phase chromatography, using a Supelco Ascentis Express C18 2.7 μm 4.6*100 mm column. The mobile phase consisted of 1.08 g sodium 1-octanesulphonate, 23.8 g sodium acetate, 1 ml triethylamine, 450 ml methanol and approximately 550 ml water. The HPLC settings were as follows: Isocratic, column temperature 30° C. flow 0.6 ml/min, detection HPLC-UV at 280 nm, injection volume 20 μl with a 6 minutes run time.

O=C1CC[C@@]2(O)[C@H]3Cc4ccc(O)c5c4[C@@]2(CCN3CC2CC2)[C@H]1O5 [Naltrexone]
Amount of naltrexone found in dissolution medium (Ground tablet (Coffee Grinder, Krups GVX242), 0.2 hours, phosphate buffer pH 6.8, 100% = 25 mg): 34.1% and 31.5% | Amount of naltrexone found in dissolution medium (Ground tablet, 0.5 hours): 36.3% and 34.2% | Amount of naltrexone found in dissolution medium (Ground tablet, 0.8 hours): 36.6% and 34.7% | Amount of naltrexone found in dissolution medium (Ground tablet, 1.5 hours): 37.4% and 34.9% | Amount of naltrexone found in dissolution medium (Ground tablet, 20 hours): 39.0% and 37.1% | Amount of naltrexone found in dissolution medium (Ground tablet, 30 hours): 34.9% and 35.9%
